Here are results for 2 compounds from US11014896B2, “TRPA1 and TRPV4 inhibitors and methods of using the same for organ-specific inflammation and itch” (Duke University, priority 2014, dated 2021).

In assay [1] the test system is primary mouse keratinocytes (1° MK). Put plainly: UVB-evoked Ca++ signaling in primary mouse keratinocytes (fluo-4 imaging). It is filed as cell-based. As for the experimental part: Ca++ imaging of 1° MK was conducted following routine procedures. For UVB stimulation, a customized device was built. The system comprised a printed circuit board for electrical interconnects and mechanical support and an ultraviolet light-emitting diode (UV LED).
The operating wavelength was 295 nm (FIG. 2A), with a full-width half-max of 12 nm. The optical power was 500 mW. The focal point was aimed at the plane of the upper surface of the quartz coverslip, which was used to minimize UV absorption along the optical path towards the cells (FIG. 2A-FIG. 2C). The optical intensity at the focal point was estimated to be 150 mW/mm^2.
Ca++ imaging of mouse 1° MK in response to chemical activation of TRPV4 was conducted after loading with 2 μM fura2-AM, following a ratiometric Ca2+ imaging protocol with 340/380 nm […] for dual excitation. Ratios of emissions were acquired at 0.5 Hz. ΔR/R0 was determined as the fraction of the increase of a given ratio over baseline ratio, divided by baseline ratio. For stimulation of cells with UVB, where fura-2 was not suitable because of the proximity of stimulation with 340/380 nm and 295 nm, 2 μM fluo4-AM was used instead. Ca++ imaging was carried out at 488 nm excitation, acquisition of emissions at 0.5 Hz, expressed as ΔF/F0. In the custom-built UV optical system, UV LEDs were capped with a ball lens, a transparent optical window in the shape of a hemispherical lens (FIG. 2B). The LED output optical beam focused at 15-20 mm from the lens, with a spot diameter of approximately 1.5-2.0 mm (FIG. 2C). […] The thermal equilibration stage was set for physiological temperature.

The test system of the next assay is ET1. Briefly: ET1 expression by UVB-exposed 1° MK (immunocytochemistry). It is filed as cell-based, mouse. The conditions noted are these: cells preincubated with inhibitor. As for the experimental part:
1° MK were exposed to UVB using the UV optical system (295 nm LED). 24 hours later the cells were fixed and fluorescently immunolabeled for ET1. Digital images were captured and subjected to morphometry.
Mouse keratinocytes were cultured on collagen coated quartz coverslips and then stimulated from the bottom using the previously mentioned UV optical system using the 295 nm LED. 24 hours later the cells were fixed in 4% formaldehyde in PBS for 20 minutes, permeabilized with 0.1% Triton X-100 in PBS for 10 minutes, washed, then blocked in 10% normal goat serum in PBS for 45 minutes. Coverslips were incubated overnight with primary antibody mouse anti-ET1 (1:200; Abcam), washed three times in PBS and incubated with secondary antibody for 2 hours at 25° C. Coverslips were washed three times in PBS, once with double-distilled H2O. Digital images were captured using a 40× immersion lens on the BX61 Olympus upright microscope. Morphometric analysis was conducted using ImageJ freeware with tailored regions-of-interest.

The nature of assay [2]: UVB-induced nocifensive behavior after topical GSK205 (Hargreaves' test, von Frey hair). It is filed as in vivo, mouse. As for the experimental part: Behavioral tests were performed to evaluate the decrease in withdrawal thresholds in response to mechanical von Frey hair or thermal stimuli applied to hind paws. […]. These withdrawal thresholds were ascertained before and after UV exposure. Mice were exposed using a Bio Rad Gel Doc 2000 UV transilluminator (302 nm) for 5 minutes with an exposure of 600 mJ/cm^2, 3-5 days after the last application of tamoxifen/oil.
(§1) GSK205 topical treatment: A viscous solution of 68% EtOH/5% glycerol plus 1 mM or 5 mM GSK205 (none for control) was applied to hindpaws by rubbing in 20 μL, applied at time-points 1 hour and again 10 min before UV exposure.
Behavioral tests were performed to evaluate the decrease in withdrawal thresholds in response to mechanical or thermal stimuli applied to hind paws. These withdrawal thresholds were ascertained before and after UVB exposure. Mice were confined by plexi-glass enclosures on top of 25×26 cm Bio Rad Gel Doc 2000 UV transilluminator (302 nm), and otherwise allowed to openly explore this environment. UV-exposure lasted for 5 minutes with an exposure of 600 mJ/cm^2.
Hindpaw mechanical withdrawal thresholds were determined by the automated von Frey hair method, using a 0.5 mm diameter stainless steel filament, part of an automated plantar touch stimulator (Ugo Basile, Modena, Italy). Relevant detail included pre-test acclimatization in a quiet room for 30 min, conducting the test at the same time of day and blinded observers. The stimulus was delivered to the hindpaw, automatically discontinued upon withdrawal, and its intensity recorded automatically. 6-8 trials per animal were conducted, with equal exposure of both hindpaws, leading to an average withdrawal threshold. Results are reported as […], which was calculated by subtracting post-treatment from pre-treatment measurements, expressed as % or relative to 1.0.
Hindpaw thermal (hot) withdrawal thresholds were determined by the well-established Hargreaves' method, using an infra-red thermal stimulation device that delivers the stimulus from underneath the hindpaw combined with automatic shut-off upon withdrawal (Ugo Basile). Stimulation and measurements were conducted as described for von Frey hair testing. A cutoff of 20 sec was set to prevent tissue damage.

The subject of a further assay is ET1/Edn1. Put plainly: Edn1 mRNA (qPCR) in UVB-exposed paw-pad epidermis after topical treatment. The conditions noted are these: 5 mM GSK205 topical; 2 hour and 24 hour time-points. It is filed as in vivo, mouse. On the procedure: as §1
Background: In qPCR the cycle at which signal appears reflects the starting amount.

A further assay has as its target TRPV4 (Homo sapiens, UniProt Q9HBA0). Briefly: UVB-evoked Ca++ transient in TRPV4-transfected HEK293T cells. The conditions noted are these: pre-exposure to 20 μM GSK205. It is filed as cell-based. The arrangement: expressed in transfected cells; host or cells: HEK293T cells.
Another assay has as its target T1, human TRPV1 (Homo sapiens, UniProt Q8NER1).
T1 construct: expressed in transfected cells; host or cells: N2a cells
Put plainly: Ca2+ signal in N2a cells transfected with human TRPV1. The conditions noted are these: stimulation with 5 μM capsaicin. It is filed as cell-based. On the procedure: Compounds were tested for their effect on TRPV1, TRPV2, and TRPV3. Methods were similar to those described in Example 15. Briefly, N2a cells were transfected with human TRPV1, TRPV2, or TRPV3. eGFP-transfection was used as control. For specific stimulation of TRPV1, 5 μM capsaicin was used. For stimulation of TRPV2, hypotonicity (260 mosmol/L) was used, based on previous reports of TRPV2 being osmotically responsive. N2a cells were not responsive to hypotonicity, and neither were control-transfected cells. For TRPV3-expressing cells, camphor (20% of a commercially available stock solution) was used. […] Stimulation and control protocols were applied as for TRPA1-expressing N2a cells as detailed above in Example 15.

The structures appear in SMILES notation. “Also recorded” adds a separate entry of the source.

Sequence of TRPV4 (Q9HBA0 whole entry, species assumed): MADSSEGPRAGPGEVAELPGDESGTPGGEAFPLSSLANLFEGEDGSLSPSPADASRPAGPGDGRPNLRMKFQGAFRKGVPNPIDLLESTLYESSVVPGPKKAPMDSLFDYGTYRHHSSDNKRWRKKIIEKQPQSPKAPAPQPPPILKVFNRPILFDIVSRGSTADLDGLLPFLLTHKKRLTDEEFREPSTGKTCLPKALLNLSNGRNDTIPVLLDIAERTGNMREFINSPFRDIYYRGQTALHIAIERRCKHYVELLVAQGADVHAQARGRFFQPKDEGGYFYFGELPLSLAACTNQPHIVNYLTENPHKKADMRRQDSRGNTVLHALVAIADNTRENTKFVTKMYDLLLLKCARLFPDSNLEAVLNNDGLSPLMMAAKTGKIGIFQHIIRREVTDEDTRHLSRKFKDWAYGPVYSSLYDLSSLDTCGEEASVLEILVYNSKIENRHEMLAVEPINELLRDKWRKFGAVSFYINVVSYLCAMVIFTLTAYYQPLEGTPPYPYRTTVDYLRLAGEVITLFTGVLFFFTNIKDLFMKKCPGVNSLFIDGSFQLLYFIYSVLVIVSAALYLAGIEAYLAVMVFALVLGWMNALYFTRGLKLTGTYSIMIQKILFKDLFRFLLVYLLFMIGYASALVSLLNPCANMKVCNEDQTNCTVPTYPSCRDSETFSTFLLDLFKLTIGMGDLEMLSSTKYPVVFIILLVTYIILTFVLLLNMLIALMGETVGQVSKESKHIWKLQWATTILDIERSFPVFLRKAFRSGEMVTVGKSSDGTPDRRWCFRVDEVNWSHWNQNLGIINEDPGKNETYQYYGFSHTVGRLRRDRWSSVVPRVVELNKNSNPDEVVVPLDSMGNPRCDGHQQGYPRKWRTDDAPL
T1 sequence (Q8NER1 whole entry): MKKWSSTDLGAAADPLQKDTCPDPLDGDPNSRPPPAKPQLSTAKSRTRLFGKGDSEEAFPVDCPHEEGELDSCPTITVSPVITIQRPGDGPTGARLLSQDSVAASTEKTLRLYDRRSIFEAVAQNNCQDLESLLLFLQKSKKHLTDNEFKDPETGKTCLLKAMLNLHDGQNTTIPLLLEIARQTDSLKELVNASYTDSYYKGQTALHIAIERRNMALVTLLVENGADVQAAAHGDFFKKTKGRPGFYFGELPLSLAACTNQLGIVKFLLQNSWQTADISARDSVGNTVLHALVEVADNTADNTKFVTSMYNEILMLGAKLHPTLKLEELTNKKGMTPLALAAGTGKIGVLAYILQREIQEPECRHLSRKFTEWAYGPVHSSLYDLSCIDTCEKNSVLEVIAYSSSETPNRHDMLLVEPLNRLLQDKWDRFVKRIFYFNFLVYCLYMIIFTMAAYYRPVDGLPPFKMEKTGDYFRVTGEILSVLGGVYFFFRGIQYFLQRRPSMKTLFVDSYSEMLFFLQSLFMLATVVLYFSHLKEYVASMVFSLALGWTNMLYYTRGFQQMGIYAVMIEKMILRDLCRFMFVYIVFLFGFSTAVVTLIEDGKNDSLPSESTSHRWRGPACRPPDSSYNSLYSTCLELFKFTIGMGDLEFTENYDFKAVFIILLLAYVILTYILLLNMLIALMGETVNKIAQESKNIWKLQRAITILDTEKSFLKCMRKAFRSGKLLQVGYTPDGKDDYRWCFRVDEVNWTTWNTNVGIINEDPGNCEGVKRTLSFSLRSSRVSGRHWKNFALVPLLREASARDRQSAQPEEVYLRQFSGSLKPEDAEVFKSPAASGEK

Regarding `CN(CCc1ccc(Nc2nc(-c3cccnc3)cs2)cc1)Cc1ccccc1` [GSK205], in assay [1] (GSK205 20 μM), the “UVB-evoked Ca++ signaling (ΔF/F0)” value is listed as “very similar response to that of Trpv4−/− 1° MK; also recorded: strongly down-regulated; also recorded: significant attenuation”. Besides, in assay [1] (UVB and ET1 co-exposure), the “ET1-augmented, UVB-induced Ca++ transients” value was “greatly diminished”. Also, in the assay with ET1, the ET1 immunoreactivity entry is reported as “diminished; also recorded: significant down-regulation”. In assay [2] (1 mM GSK205 topical, WT mice), the “delay in thermal sensitivity after UVB” value is roughly 24 h. In addition, in assay [2] (5 mM GSK205 topical, 60′ and 10′ pre-exposure, WT mice), the “thermally-evoked nocifensive behavior (Hargreaves' test) after UVB” value is “sustained attenuation of thermally-evoked nocifensive behavior; also recorded: significant attenuation of thermal allodynia”. Further, the “nocifensive behavior after UVB in Trpv4−/− mice vs. vehicle (off-target effects)” value in assay [2] (5 mM GSK205 topical, Trpv4−/− mice) is reported as “did not show any inter-group differences; also recorded: lack of off-target effects”. Also, the “sensitivity to von Frey hair mechanical stimulation after UVB” value in assay [2] (topical GSK205, WT mice) was “significantly reduced sensitivity”. Besides, the “Edn1 mRNA expression after UVB” value in the assay on ET1/Edn1 is recorded as “unchanged; also recorded: complete lack of this regulation”. Further, the “UVB-evoked Ca++ signal in TRPV4-transfected HEK293T cells” value on TRPV4 was “blocked; also recorded: virtually eliminates”.

Regarding `CN(CCc1ccc(Nc2nc(-c3ccccc3)cs2)cc1)Cc1ccccc1` [Compound 16-8], the “Ca2+ transience on TRPV1 stimulation” value at human TRPV1 was “not affected”.
